US20210403864A1, “METHODS AND COMPOSITIONS FOR TREATING ACTIVATED G-ALPHA Q MUTANT CANCERS OR MELANOCYTIC MALIGNANCIES” (Memorial Sloan Kettering Cancer Center, priority 2018, published 2021)
Changes are numbered by the printed parent chain.

Tests used:
Format in all cases: cell-based, mouse
[1] = target: T1, GNAQ^Q209L (Homo sapiens, UniProt P50148, Q209L); assay: IP1 accumulation assay in mutation dependent melan-a cells
T1 construct: host or cells: melan-a (immortalized mouse melanocytes), retroviral transduction with MSCV-Puro
T1 sequence (P50148 1-359 Q209L): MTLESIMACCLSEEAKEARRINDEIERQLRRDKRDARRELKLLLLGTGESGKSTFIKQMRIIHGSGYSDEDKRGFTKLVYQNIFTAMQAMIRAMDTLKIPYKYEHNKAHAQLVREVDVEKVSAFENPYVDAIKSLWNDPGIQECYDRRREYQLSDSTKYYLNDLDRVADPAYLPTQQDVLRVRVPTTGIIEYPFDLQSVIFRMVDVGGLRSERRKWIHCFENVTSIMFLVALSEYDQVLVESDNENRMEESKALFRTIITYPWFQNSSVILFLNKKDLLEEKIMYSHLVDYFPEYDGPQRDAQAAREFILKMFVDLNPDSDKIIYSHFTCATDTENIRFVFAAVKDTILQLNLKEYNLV
Method: (§1) Cells were treated with increasing concentrations of YM-254890 (YM) for 3 hours (top) and 24 hours (bottom). Error bars, s.e.m. from three biological replicates, each with three technical replicates.
(§2) Cell Culture and in vitro analysis. Mutation dependent melan-a cells were generated by transducing cells with cDNAs in MSCV-PURO (retrovirus) and then selecting cells with puromycin (1 μg/ml) for two days. TPA (Sigma-Aldrich, St. Louis, Mo.) was then withdrawn from cultures. Cells with activating mutations (CYSLTR2^L129Q, GNAQ^G48V/R183Q/Q209L, KRAS^G12V, and BRAF^V600E) continued to proliferate over several passages (>2 weeks) and were then validated with qRT-PCR and immunoblots. Vector and WT controls were unable to maintain proliferation after a couple passages upon TPA withdrawal. All cells were cultured in media containing 10% FBS, L-glutamine ([…]), penicillin (100 U/ml), streptomycin (100 μg/ml). Melan-a cells provided by D. Bennett, St. George's Hospital, University of London (Johnson C P, et al., PLoS One. 12(6):1-17 (2017)), were cultured in RPMI supplemented with 200 nM TPA unless otherwise noted. HEK293T (from ATCC, Manassas, Va.) cells were cultured in DMEM-Q and UVM cells were cultured in RPMI. All cells tested negative for mycoplasma. Cell growth assays and YM dose response curves were assayed using CellTiter-glo 2.0 (Promega, Madison, Wis.) at given time points or after five days of incubation with YM and readout on a Glomax Luminometer (Promega, Madison, Wis.). IC50 values were calculated using Prism 7.0 software. Growth assays were compared to day 1 readings and dose response curves were compared to vehicle. Data shown is representative of at least three independent experiments with at least three technical replicates. Dose-response curves and growth assays were analyzed using GraphPad Prism 7.0 software.
(§3) IP1 Accumulation Assay. IP1 concentrations in GNAQ-transfected HEK293T cells, GNAQ-expressing melan-a cells and uveal melanoma cells was measured using a competitive homogenous time resolved fluorescence (HTRF) assay (CisBio, Bedford, Mass.). Briefly, 9,000 transiently transfected-HEK293T cells, 5,000 melan-a cells and 5,000 uveal melanoma cells were seeded in low-volume 384-well plates in 7 μL media for 24 hours prior YM-254890 treatment. Cells were then treated with various concentrations of YM-254890 diluted in the appropriate media at 37° C. for 3 hours or 24 hours. 1 h prior lysis, cells were supplemented with 1× Stimulation Buffer provided by the manufacturer (HEPES 10 mM, CaCl2) 1 mM, MgCl2 0.5 mM, KCl 4.2 mM, NaCl 146 mM, glucose 5.5 mM, LiCl 50 mM, pH 7.4) with 0.2% BSA and 50 mM of LiCl (to prevent IP1 degradation). Following incubation, cells were lysed by adding 3 μL/well of d2-labeled IP1 analogue as the fluorescence acceptor and the Terbium cryptate-labeled anti-IP1 mAb as the fluorescence donor, diluted in the kit-supplied lysis buffer. The plates were incubated overnight at RT and time-resolved fluorescence signals were read using the BioTek Synergy NEO plate reader (BioTek Instruments, Winooski, Vt.) at 620 nm and […]. Results were calculated as a 665 nm/620 nm signal ratio, and IP1 concentrations were interpolated from a standard curve prepared using the supplied IP1 calibrator. Results are shown as IP1 (nM). Dose-response curves and bar graphs were analyzed using GraphPad Prism 7.0 software.

[2] = target: T2, GNAQ^R183Q (Homo sapiens, UniProt P50148, R183Q); assay: as above
T2 construct: host or cells: melan-a (immortalized mouse melanocytes), retroviral transduction with MSCV-Puro
T2 sequence (P50148 1-359 R183Q): T1 sequence (P50148 1-359 Q209L) with R183Q, L209Q
Method: as §1, §2, §3

[3] = system: CYSLTR2^L129Q-expressing melan-a cells; assay: TPA-independent cell growth, CellTiter-glo 2.0; conditions: 5 days
Method: (§4) Data are expressed as the percentage relative light units (RLU) relative to that observed with vehicle. Error bars, s.e.m. from triplicate samples.
(§5) Data are expressed as the percentage RLU relative to that observed with vehicle. Error bars, s.e.m. from triplicate samples.
as §2

[4] = system: GNAQ^Q209L-expressing melan-a cells; assay: TPA-independent cell growth, CellTiter-glo 2.0; conditions: 5 days
Method: as §4, §5, §2

Q: Which “fold less sensitive than CYSLTR2^L129Q and GNAQ^G48V mutants (IP1 accumulation)” value ([1]; 24-hour treatment) does the source give for YM-254890 here?
A: Its value is “approximately 10 fold”.

Q: And the “inhibition of IP1 accumulation” value ([1]; 24-hour treatment)?
A: The value was “completely inhibited”.

Q: What about the “sensitivity of IP1 accumulation after 3 hours versus 24 hours” value ([1]; 3 hours of treatment) of the same substance?
A: Its value is “less sensitive”.

Q: And the “inhibition of IP1 accumulation” value ([1]; 3 hours of treatment, even at high doses of YM)?
A: Its value is “only partially inhibited”.

Q: And the “fold less sensitive than CYSLTR2^L129Q and GNAQ^G48V mutants (IP1 accumulation)” value ([2]; 24-hour treatment)?
A: The value was “approximately 10 fold”.

Q: What about the “inhibition of IP1 accumulation” value ([2]; 24-hour treatment) of the same substance?
A: Its value is “completely inhibited”.

Q: And the “sensitivity of IP1 accumulation after 3 hours versus 24 hours” value ([2]; 3 hours of treatment)?
A: Its value is “less sensitive”.

Q: And the “YM-mediated growth inhibition in the presence of TPA” value ([3]; with TPA)?
A: The value was “rescued”.

Q: What about the “sensitivity of TPA-independent cell growth to YM” value ([3]; without TPA) of the same substance?
A: Its value is “sub-nanomolar sensitivity”.

Q: What about the “YM-mediated growth inhibition in the presence of TPA” value ([4]; with TPA) of the same substance?
A: Its value is “rescued”.

Q: And the “sensitivity of TPA-independent cell growth to YM” value ([4]; without TPA)?
A: Its value is “modestly less sensitive”.
